Results on eight compounds are retold here after article PMC8742467, “Therapeutical interference with the epigenetic landscape of germ cell tumors: a comparative drug study and new mechanistical insights” (Clinical Epigenetics, 2022).

Each structure is given as a SMILES string. Like-named read-outs stand apart in the source and are kept apart here. Where only a bound is given, the exact number is not on record here.

For one assay, the system named is GCT cell lines. As to the kind of experiment: XTT cell viability assay, GCT cell lines (pre-screen / summary). Format: cell-based, Human. As to conditions: first pre-screen, XTT; for EC50: read-out: EC50. Here is the method:
(§1) The […] (XTT) assays were performed as described previously. In summary, for GCT and fibroblast cell lines 5 × 10^3 cells (3 × 10^3 for UC, PCa and RCC cell lines) per 96-well were seeded and different drug concentrations (see Additional file 2: Fig. S2, Additional file 3: Fig. S3) or corresponding solvents were added to the cells the following day. For drug details see Additional file 12: Table S2 C. Each condition was analyzed in four technical replicates and EC50 values were calculated by GraphPad Prism v8.
Background: Formazan colour is commonly taken as a measure of viable cells.

For a further assay, the system named is JAR (CC). As to the kind of experiment: XTT cell viability assay, JAR. The assay is classed as cell-based. The following applies: Homo sapiens, after 48 h, n = 4, read-out: EC50 colour/symbol code, CC JAR. Here is the method:
as §1

For another assay, the system named is 2102EP (EC). As to the kind of experiment: XTT cell viability assay, 2102EP. The assay is classed as cell-based. The following applies: Homo sapiens, read-out: EC50 colour/symbol code, EC 2102EP. Here is the method: as §1
Another assay deals with TCam-2 (SE). As to the kind of experiment: XTT cell viability assay, TCam-2. The assay is classed as cell-based. As to conditions: Homo sapiens, read-out: EC50 colour/symbol code, SE TCam-2. The protocol: as §1

`O=C(O)C1=CC(=C(c2ccc(O)c(C(=O)O)c2)c2ccc(O)c(C(=O)O)c2)C=CC1=O` [Aurintricarboxylic Acid]: the EC50 with GCT cell lines (Homo sapiens, GCT) was greater than 50 µM; with JAR (CC), greater than 50 µM; in the assay on 2102EP (EC) (after 48 h, XTT, n = 4) it was greater than 50 µM; in the assay with TCam-2 (SE) (after 48 h, XTT, n = 4), greater than 50 µM.

Consider `COc1cc(-c2cn(C)c(=O)c3cnccc23)c(OC)cc1CN(C)C` [BI-9564], for which the EC50 is greater than 50 µM with GCT cell lines (Homo sapiens, GCT); greater than 50 µM in the assay on JAR (CC); greater than 50 µM in the assay with 2102EP (EC) (after 48 h, XTT, n = 4); greater than 50 µM with TCam-2 (SE) (after 48 h, XTT, n = 4).

Take `NNCCc1ccc(NC(=O)CCCc2ccccc2)cc1` [Bizine]: the EC50 in the assay with GCT cell lines is greater than 50 µM.

As to `CN(C)NC(=O)CCC(=O)O` [Daminozide], the EC50 with JAR (CC), in the assay with 2102EP (EC) (48 h) and in the assay on TCam-2 (SE) (48 h) was greater than 50 µM each time.

As to `O=C(O)c1ccc(CN2CCC(CN[C@@H]3C[C@H]3c3ccccc3)CC2)cc1` [GSK2879552], the EC50 is greater than 50 µM with GCT cell lines (Homo sapiens, GCT); greater than 50 µM in the assay on JAR (CC); greater than 50 µM in the assay on 2102EP (EC) (after 48 h, XTT, n = 4); greater than 50 µM in the assay with TCam-2 (SE) (after 48 h, XTT, n = 4).

Take `NC(=O)c1cccnc1` [Nicotinamide]: the EC50 in the assay with GCT cell lines (Homo sapiens, GCT) was greater than 50 µM; with JAR (CC) it was greater than 50 µM; in the assay on 2102EP (EC) (after 48 h, XTT, n = 4), greater than 50 µM; in the assay with TCam-2 (SE) (after 48 h, XTT, n = 4) it was greater than 50 µM.

As to `NC(=O)C1CCCc2c1[nH]c1ccc(Cl)cc21` (stereo not shown) [Selisistat], the EC50 in the assay on GCT cell lines is greater than 50 µM.

Regarding `COc1cc(-c2cn(C)c(=O)c3cnccc23)cc(OC)c1CN1CCN(CCCCCOc2cc(-c3scnc3C)ccc2CNC(=O)[C@@H]2C[C@@H](O)CN2C(=O)[C@@H](NC(=O)C2(F)CC2)C(C)(C)C)CC1` [VZ185], in the assay with GCT cell lines (SE and EC proxies TCam-2 and 2102EP), the “EC50 / effective concentration in words” value is listed as “low micromolar concentrations”. Moreover, the EC50 in the assay with JAR (CC) lay within 1 to 50 µM; with 2102EP (EC) (after 48 h, XTT, n = 4), 1 to 50 µM; in the assay on TCam-2 (SE) (after 48 h, XTT, n = 4), 1 to 50 µM.
